Each compound was assayed against T1, RORc ligand binding domain (Homo sapiens, UniProt P51449) (assay: In Vitro RORc Ligand Binding Assay). Conditions: RORc IC50, radioligand 25-[3H]hydroxycholesterol 6 nM; 0.6 ug/mL RORc receptor; 3 h at 25° C.
T1 sequence (P51449 269-508 limits assumed): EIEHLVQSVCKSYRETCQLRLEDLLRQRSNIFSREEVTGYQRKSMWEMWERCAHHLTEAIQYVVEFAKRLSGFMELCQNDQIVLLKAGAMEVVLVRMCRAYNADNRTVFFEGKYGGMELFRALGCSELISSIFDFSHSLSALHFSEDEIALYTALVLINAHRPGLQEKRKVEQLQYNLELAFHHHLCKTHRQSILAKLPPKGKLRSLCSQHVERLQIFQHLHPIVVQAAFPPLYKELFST

Row | SMILES | IC50
1 | CC1(C)[C@H]2CC[C@]1(c1cncc(-c3n[nH]c(=O)o3)n1)c1nnc(-c3c(F)cccc3F)cc12 [Example 148, 5-(6-((5R,8S)-3-(2,6-difluorophenyl)-9,9-dimethyl-5,6,7,8-tetrahydro-5,8-methanocinnolin-8-yl)pyrazin-2-yl)-1,3,4-oxadiazol-2(3H)-one] | 21 nM
2 | Cc1nnc(-c2cccc([C@@]34CC[C@@H](c5cc(-c6c(F)cccc6F)nnc53)C4(C)C)n2)[nH]1 [Example 149] | 24 nM
3 | CC1(C)[C@H]2CC[C@]1(c1cccc(-c3nnc(CO)[nH]3)n1)c1nnc(-c3c(F)cccc3F)cc12 [Example 150, (5-(6-((5R,8S)-3-(2,6-difluorophenyl)-9,9-dimethyl-5,6,7,8-tetrahydro-5,8-methanocinnolin-8-yl)pyridin-2-yl)-4H-1,2,4-triazol-3-yl)methanol] | 22.3 nM
4 | CC1(C)[C@H]2CC[C@]1(c1ccnc(-n3cnnc3)n1)c1nnc(-c3c(F)cccc3F)cc12 [Example 151] | 13.6 nM
5 | CC1(C)[C@H]2CC[C@]1(c1ccnc(N3C[C@H](O)[C@@H](O)C3)n1)c1nnc(-c3c(F)cccc3F)cc12 [Example 152] | 174 nM
6 | CC1(C)[C@H]2CC[C@]1(c1ccnc(NC[C@H](O)CO)n1)c1nnc(-c3c(F)cccc3F)cc12 [Example 153] | 15.7 nM
7 | CC1(C)[C@H]2CC[C@]1(c1ccnc(NC[C@@H](O)CO)n1)c1nnc(-c3c(F)cccc3F)cc12 [Example 154] | 42.1 nM
8 | CC1(C)[C@H]2CC[C@]1(c1ccnc(NCc3n[nH]c(=O)[nH]3)n1)c1nnc(-c3c(F)cccc3F)cc12 [Example 155] | 65.8 nM
9 | CC(C)S(=O)(=O)Nc1cccc([C@@]23CC[C@@H](c4cc(-c5c(F)cccc5F)nnc42)C3(C)C)n1 [Example 156, N-(6-((5R,8S)-3-(2,6-difluorophenyl)-9,9-dimethyl-5,6,7,8-tetrahydro-5,8-methanocinnolin-8-yl)pyridin-2-yl)propane-2-sulfonamide] | 30.6 nM
10 | CC1(C)[C@H]2CC[C@]1(c1cccc(N3CCNC3=O)n1)c1nnc(-c3c(F)cccc3F)cc12 [Example 157, 1-(6-((5R,8S)-3-(2,6-difluorophenyl)-9,9-dimethyl-5,6,7,8-tetrahydro-5,8-methanocinnolin-8-yl)pyridin-2-yl)imidazolidin-2-one] | 5.1 nM
11 | CC1(C)[C@H]2CC[C@]1(c1cccc(N3CCN(CCO)C3=O)n1)c1nnc(-c3c(F)cccc3F)cc12 [Example 158, 1-(6-((5R,8S)-3-(2,6-difluorophenyl)-9,9-dimethyl-5,6,7,8-tetrahydro-5,8-methanocinnolin-8-yl)pyridin-2-yl)-3-(2-hydroxyethyl)imidazolidin-2-one] | 26.1 nM
12 | CC1(C)[C@H]2CC[C@]1(c1cnc(C#N)c(C#N)n1)c1nnc(-c3c(F)cccc3F)cc12 [Example 159, 5-((5R,8S)-3-(2,6-difluorophenyl)-9,9-dimethyl-5,6,7,8-tetrahydro-5,8-methanocinnolin-8-yl)pyrazine-2,3-dicarbonitrile] | 548 nM
13 | COC(=O)c1nccc([C@@]23CC[C@@H](c4cc(-c5c(F)cccc5Cl)nnc42)C3(C)C)n1 [Example 160] | 13.1 nM
14 | CC1(C)[C@H]2CC[C@]1(c1ccnc(C(=O)NCCO)n1)c1nnc(-c3c(F)cccc3Cl)cc12 [Example 161] | 44 nM
15 | CC1(C)[C@H]2CC[C@]1(c1cccc(S(=O)(=O)NCCO)n1)c1nnc(-c3c(F)cccc3F)cc12 [Example 162, 6-((5R,8S)-3-(2,6-difluorophenyl)-9,9-dimethyl-5,6,7,8-tetrahydro-5,8-methanocinnolin-8-yl)-N-(2-hydroxyethyl)pyridine-2-sulfonamide] | 23 nM
16 | CC1(C)[C@H]2CC[C@]1(c1ccnc(NCc3nnc[nH]3)n1)c1nnc(-c3c(F)cccc3F)cc12 [Example 163] | 19.2 nM
17 | CC1(C)[C@H]2CC[C@]1(c1cccc(NS(=O)(=O)C3COC3)n1)c1nnc(-c3c(F)cccc3F)cc12 [Example 164, N-(6-((5R,8S)-3-(2,6-difluorophenyl)-9,9-dimethyl-5,6,7,8-tetrahydro-5,8-methanocinnolin-8-yl)pyridin-2-yl)oxetane-3-sulfonamide] | 32.4 nM
18 | CC1(C)[C@H]2CC[C@]1(c1cc(C#N)ncc1Br)c1nnc(-c3c(F)cccc3F)cc12 [Example 165, 5-bromo-4-((5R,8S)-3-(2,6-difluorophenyl)-9,9-dimethyl-5,6,7,8-tetrahydro-5,8-methanocinnolin-8-yl)picolinonitrile] | 25.1 nM
19 | CC1(C)[C@H]2CC[C@]1(c1nc(C#N)ccc1Br)c1nnc(-c3c(F)cccc3F)cc12 [Example 166, 5-bromo-6-((5R,8S)-3-(2,6-difluorophenyl)-9,9-dimethyl-5,6,7,8-tetrahydro-5,8-methanocinnolin-8-yl)picolinonitrile] | 3.9 nM
20 | Cc1nc(C#N)c(C#N)nc1[C@@]12CC[C@@H](c3cc(-c4c(F)cccc4F)nnc31)C2(C)C [Example 167, 5-((5R,8S)-3-(2,6-difluorophenyl)-9,9-dimethyl-5,6,7,8-tetrahydro-5,8-methanocinnolin-8-yl)-6-methylpyrazine-2,3-dicarbonitrile] | 548 nM
21 | CC1(C)[C@H]2CC[C@]1(c1nc(C(F)(F)F)ncc1Br)c1nnc(-c3c(F)cccc3F)cc12 [Example 168] | 20.1 nM

Next, values leading:

Row | IC50 | SMILES
22 | 10 nM | COC(=O)c1cnc(C)c([C@@]23CC[C@@H](c4cc(-c5c(F)cccc5F)nnc42)C3(C)C)n1 [Example 169, methyl 6-((5R,8S)-3-(2,6-difluorophenyl)-9,9-dimethyl-5,6,7,8-tetrahydro-5,8-methanocinnolin-8-yl)-5-methylpyrazine-2-carboxylate]
23 | 119 nM | Cc1ncc(C(=O)NCCO)nc1[C@@]12CC[C@@H](c3cc(-c4c(F)cccc4F)nnc31)C2(C)C [Example 170, 6-((5R,8S)-3-(2,6-difluorophenyl)-9,9-dimethyl-5,6,7,8-tetrahydro-5,8-methanocinnolin-8-yl)-N-(2-hydroxyethyl)-5-methylpyrazine-2-carboxamide]
24 | 36.6 nM | Cc1nnc(-c2ccnc([C@@]34CC[C@@H](c5cc(-c6c(F)cccc6F)nnc53)C4(C)C)n2)[nH]1 [Example 171, (5R,8R)-3-(2,6-difluorophenyl)-9,9-dimethyl-8-(4-(5-methyl-4H-1,2,4-triazol-3-yl)pyrimidin-2-yl)-5,6,7,8-tetrahydro-5,8-methanocinnoline]
25 | 159 nM | CC1(C)[C@H]2CC[C@]1(c1ccc(C#N)nc1)c1nnc(-c3c(F)cccc3Cl)cc12 [Example 172, 5-((5R,8S)-3-(2-chloro-6-fluorophenyl)-9,9-dimethyl-5,6,7,8-tetrahydro-5,8-methanocinnolin-8-yl)picolinonitrile]
26 | 4.5 nM | CC1(C)[C@H]2CC[C@]1(c1cccc(C#N)n1)c1nnc(-c3c(F)cccc3Cl)cc12 [Example 173, 6-((5R,8S)-3-(2-chloro-6-fluorophenyl)-9,9-dimethyl-5,6,7,8-tetrahydro-5,8-methanocinnolin-8-yl)picolinonitrile]
27 | 8.5 nM | CC1(C)[C@H]2CC[C@]1(c1cncc(-c3c[nH]c(=O)[nH]3)n1)c1nnc(-c3c(F)cccc3F)cc12 [Example 174, 4-(6-((5R,8S)-3-(2,6-difluorophenyl)-9,9-dimethyl-5,6,7,8-tetrahydro-5,8-methanocinnolin-8-yl)pyrazin-2-yl)-1H-imidazol-2(3H)-one]
28 | 13.4 nM | Cc1ncc(-c2ccnc([C@@]34CC[C@@H](c5cc(-c6c(F)cccc6F)nnc53)C4(C)C)c2)o1 [Example 175]
29 | 12.9 nM | COC(=O)c1nc(C)cc([C@@]23CC[C@@H](c4cc(-c5c(F)cccc5F)nnc42)C3(C)C)n1 [Example 176]
30 | 24.4 nM | CC1(C)[C@H]2CC[C@]1(c1cc(N)ncc1Cl)c1nnc(-c3c(F)cccc3F)cc12 [Example 177, 5-chloro-4-((5R,8S)-3-(2,6-difluorophenyl)-9,9-dimethyl-5,6,7,8-tetrahydro-5,8-methanocinnolin-8-yl)pyridin-2-amine]
31 | 27.8 nM | Cc1nnc(-c2nccc([C@@]34CC[C@@H](c5cc(-c6c(F)cccc6F)nnc53)C4(C)C)n2)[nH]1 [Example 178]
32 | 15 nM | CC1(C)[C@H]2CC[C@]1(c1cccc(-c3n[nH]c(=O)[nH]3)n1)c1nnc(-c3c(F)cccc3F)cc12 [Example 179, 3-(6-((5R,8S)-3-(2,6-difluorophenyl)-9,9-dimethyl-5,6,7,8-tetrahydro-5,8-methanocinnolin-8-yl)pyridin-2-yl)-1H-1,2,4-triazol-5(4H)-one]
33 | 28 nM | CC1(C)[C@H]2CC[C@]1(c1ccnc(-c3nnc(CO)[nH]3)n1)c1nnc(-c3c(F)cccc3F)cc12 [Example 180]
34 | 3.7 nM | CC1(C)[C@H]2CC[C@]1(c1ccnc(-n3ccnc3)n1)c1nnc(-c3c(F)cccc3F)cc12 [Example 181]
35 | 4.2 nM | CC1(C)[C@H]2CC[C@]1(c1ccnc(-n3cncn3)n1)c1nnc(-c3c(F)cccc3F)cc12 [Example 182]
36 | 15.6 nM | CNS(=O)(=O)c1nccc([C@@]23CC[C@@H](c4cc(-c5c(F)cccc5F)nnc42)C3(C)C)n1 [Example 183]
37 | 3.3 nM | CC1(C)[C@H]2CC[C@]1(c1cncc(-c3cnco3)n1)c1nnc(-c3c(F)cccc3F)cc12 [Example 184, 5-(6-((5R,8S)-3-(2,6-difluorophenyl)-9,9-dimethyl-5,6,7,8-tetrahydro-5,8-methanocinnolin-8-yl)pyrazin-2-yl)oxazole]
38 | 30.5 nM | CC1(C)[C@H]2CC[C@]1(c1cncc(=O)[nH]1)c1nnc(-c3c(F)cccc3F)cc12 [Example 185, 6-((5R,8S)-3-(2,6-difluorophenyl)-9,9-dimethyl-5,6,7,8-tetrahydro-5,8-methanocinnolin-8-yl)pyrazin-2(1H)-one]
39 | 26.4 nM | COC(=O)c1ncc(Br)c([C@@]23CC[C@@H](c4cc(-c5c(F)cccc5F)nnc42)C3(C)C)n1 [Example 187]

Source: patent publication US10487068B2, “Pyridazine derivatives as RORc modulators” (Genentech, Inc., priority 2015, dated 2019)
